This is an account of results in patent US8834919B2, “Lipid emulsions in the treatment of systemic poisoning” (priority 1998, dated 2014).

For data set [1] the following is noted: octanol:water; P = [organic]/[aqueous]; cited from earlier work.
The test system of a further data set is Male Sprague-Dawley rats. In words: Pretreatment with lipid emulsion: dose-response to bupivacaine induced asystole in rats (protocol 1). Format: in vivo, rat. An excerpt:
Studies were undertaken to assess the ability of a lipid emulsion to shift the dose-response to drug-induced asystole (heart stoppage) in rats. Pretreatment with a lipid emulsion increased the dose of bupivacaine (a local anesthetic) required to induce asystole. Racemic bupivacaine hydrochloride was purchased from Sigma (St. Louis, Mo.) while tritiated bupivacaine was purchased from Moravek Biochemicals (Brea, Calif.). Intralipid® was purchased from Baxter Healthcare (Deerfield, Ill.). Male Sprague-Dawley rats weighing between about 250 grams to about 370 grams were used in all experiments.
Animals were first anesthetized in a bell jar with isoflurane to allow intubation, then mechanically ventilated with about 1.75% isoflurane in about 100% oxygen using a Harvard rodent ventilatory model 680 in conjunction with a tidal volume of 3 ml and a starting rate of about 40 breaths per minute. […] Electrocardiogram (BCG) was monitored via three subcutaneous needle electrodes in each rat. […]
All animals were allowed to stabilize for about 15 minutes while arterial blood pressure and ECG were monitored. […]
Immediately following pretreatment, all animals received an infusion of about 0.75% bupivacaine via the internal iliac catheter at a rate of 10 mg/kg/min to an end point of about ten seconds of asystole. […] The cumulative lethal dose of bupivacaine was calculated in mg/kg for all animals. […]

Data set [2] is classed as in vivo, rat. The note with it: saline pretreatment (group 1); +/- SEM. How it is done: Immediately following pretreatment, all animals received an infusion of about 0.75% bupivacaine via the internal iliac catheter at a rate of 10 mg/kg/min to an end point of about ten seconds of asystole. Blood was then drawn from the aorta into a heparinized syringe for plasma bupivacaine determinations. The cumulative lethal dose of bupivacaine was calculated in mg/kg for all animals.
Plasma bupivacaine concentrations were determined by high performance liquid chromatograph (HPLC) after the samples had been extracted with hexane. The method of hexane extraction was validated with bupivacaine spiked samples and provided greater than about 95% recovery of bupivacaine from both normal and lipemic plasma. Thus, plasma bupivacaine concentrations reflected total bupivacaine content in both the aqueous and lipid phases of the specimen. […] The drugs were detected at a wavelength of about 215 nm.
Bupivacaine dose and plasma concentrations were analyzed by Kruskal-Wallis one way analysis of variance on ranks. […] Plasma bupivacaine concentration data were parametric and differences in mean values were evaluated. […] The difference in survival of the two groups at 15 mg/kg bupivacaine was further evaluated using a z test of proportions. […]

Data set [3] can be described thus: Bupivacaine lipid:aqueous partition in a mixture of Intralipid and rat plasma. Format: physicochemical. As to the method: The bupivacaine lipid:aqueous partition coefficient was determined for a mixture of Intralipid® and rat plasma. Blood obtained from rats by direct heart puncture under halothane anesthesia was centrifuged and the plasma was separated. Equal volumes of about 30% Intralipid® and plasma (approximately 2 ml each) were combined and vortexed. Approximately 1.0 μCi of titriated bupivacaine (specific activity 0.81 Ci/mole) was added to the mixture to a final bupivacaine concentration of about 93 μg/ml. This mixture was vortexed again then separated into aliquots of about 1 ml. These aliquots were allowed to sit undisturbed for about one hour at about 38° C., then centrifuged at about 10,000 g for about 10 minutes. High speed centrifugation separated each of these mixtures into a clear aqueous phase (about 0.85 ml) under a lipid phase (about 0.15 ml). The latter comprised a clear layer beneath a very thin white cap. The cap was removed then redissolved in saline to a total volume of about 1 ml. Aliquots of this solution and the aqueous plasma phase were then analyzed for tritiated bupivacaine content by liquid scintillation counting. The bupivacaine lipid:aqueous partition coefficient was given by the ratio of bupivacaine in the combined lipid phase (following correction for saline dilution) to the bupivacaine in the aqueous phase. This experiment was performed in triplicate.

Data set [4] can be described thus: Resuscitation from a toxic bupivacaine dose with lipid emulsion (protocol 2). The note with it: male, Sprague-Dawley, rat, in vivo, iv, resuscitation with saline infusion after iv bupivacaine bolus; probit analysis. As to the method:
Bupivacaine dose and plasma concentrations were analyzed by Kruskal-Wallis one way analysis of variance on ranks. Post hoc testing of both data sets was performed by Student-Newman-Keul's method for multiple comparisons (SigmaStat, Jandel Scientific/San Rafael, Calif.). Cumulative bupivacaine dose data were nonparametric and median values were compared by differences of ranks. Plasma bupivacaine concentration data were parametric and differences in mean values were evaluated. Probit analysis (CalcuSyn, Biosoft/Cambridge, England) was used to compare bupivacaine LD50 values in the saline and lipid portions. The difference in survival of the two groups at 15 mg/kg bupivacaine was further evaluated using a z test of proportions. Statistical significance in all experiments was taken as p less than or equal to 0.05.
Experiments were performed to evaluate the ability of a lipid emulsion to resuscitate an animal from a toxic dose of bupivacaine. All animals were anaesthetized, instrumented and stabilized at about 1.75% isoflurane as described in Example 1, and arterial blood pressure and ECG were continuously monitored. […] Survival was scored about 5 minutes after the bupivacaine bolus and required both heart rate greater than about 100 beats per minute and systolic blood pressure greater than about 60 mmHg. […]

The subject of the next data set is rats. Nature of the data set: Pretreatment with lipid emulsion: cocaine toxicity in rats. Format: in vivo, rat. The note with it: control (saline), cocaine iv 5 mg/kg/min. How it is done:
Because of the significant potential benefit, experiments were performed to test an infusion of a lipid emulsion as a method of treating cocaine toxicity. Anesthetized, ventilated rats were infused with a lipid emulsion (20% Intralipid® at 10 ml/kg for 2 minutes) and then administered an intravenous infusion of cocaine at 5 mg/kg/min to hypotension (blood pressure is less than 40 mmHg) or asystole (no heartbeat for 5 seconds). […] Thus, pretreatment with a lipid emulsion composition shifts the dose-response of cocaine in much the same way as bupivacaine. This is an expected result given the similar properties and effects between cocaine and bupivacaine. These findings indicate that lipid infusion can be used to treat patients experiencing acute cardiovascular compromise in cocaine overdose.

With `CC(NC(C)(C)C)C(=O)c1cccc(Cl)c1` (stereo not drawn) [bupropion], the logP in data set [1] is recorded as 3.47.

Consider `Nc1nnc(-c2cccc(Cl)c2Cl)c(N)n1` [lamotrigine], for which the logP in data set [1] was −0.19.

Regarding `CCCN1CCCC[C@H]1C(=O)Nc1c(C)cccc1C` [ropivacaine], the logP in data set [1] is listed as 3.11.

Take `COc1ccc([C@@H]2Sc3ccccc3N(CCN(C)C)C(=O)[C@@H]2OC(C)=O)cc1` [diltiazem]: the log partition coefficient (logP) in data set [1] is on record as 4.53.

With `Cc1cccc(C)c1NC(=O)C1CCCCN1C` (stereo not drawn) [mepivacaine], the lipophilicity (logP) in data set [1] is recorded as 2.04.

Consider `CCCCN1CCCCC1C(=O)Nc1c(C)cccc1C` (racemic) [bupivacaine], for which the “Median bupivacaine lethal dose” value in the data set on Male Sprague-Dawley rats (saline pretreatment (group 1), 0.75% bupivacaine 10 mg/kg/min to asystole, n=6) came out at 17.8 mg/kg. Also, the “lethal bupivacaine dose, lower end of range among all animals” value in the data set with Male Sprague-Dawley rats (single animal receiving saline pretreatment) is recorded as “about 12.7 mg/kg”. Besides, in data set [2], the “mean plasma bupivacaine concentration at the time of asystole” value came out at 93.3 ± 7.6 µg/mL. In addition, the “percent of total bupivacaine dissolved in the lipid phase” value in data set [3] (equal volumes of about 30% Intralipid and plasma, lipid volume about 15% of total) is recorded as “about 75.3%”. Also, the “lipid:aqueous ratio of bupivacaine concentrations” value in data set [3] (equal volumes of about 30% Intralipid and rat plasma, about 38 °C, about 93 μg/ml, +/- standard error, triplicate) was 11.9+/−1.77. Also, in data set [4], the LD50 at 5 min amounted to 12.5 mg/kg. In addition, the logP in data set [1] is on record as 3.64.

On to `COC(=O)[C@H]1[C@@H](OC(=O)c2ccccc2)C[C@@H]2CC[C@H]1N2C` [cocaine], for which the time to asystole in the data set with rats worked out at 368 ± 27 s. Further, the “mean time to hypotension (40 mmHg)” value with rats (n=8) is 143 ± 22 s.

On to `CCCCNc1ccc(C(=O)OCCN(C)C)cc1` [tetracaine], for which the logP in data set [1] is given as 3.49.
